Results on 15 compounds are retold here after ChEMBL document CHEMBL1133273, “Synthesis and evaluation of quinoline carboxyguanidines as antidiabetic agents” (2000).

Common to all, as to format: functional
The test system of test [1] is Rattus norvegicus. In words: Percent glycaemia evolution at 200 mg/kg at 2 hr after a sharp administration (J1) in Wistar rats.
Test [2] has as its system Rattus norvegicus. In words: Percent glycaemia evolution at 200 mg/kg at 2 hr after the last administration for 4 days chronic treatment (J4) in Wistar rats.
Test [3] relates to Rattus norvegicus. Briefly: Percent glycaemia evolution at 20 mg/kg at 2 hr after a sharp administration (J1) in Wistar rats.
The test system of test [4] is Rattus norvegicus. In words: Percent glycaemia evolution at 20 mg/kg at 2 hr after the last administration for 4 days chronic treatment (J4) in Wistar rats.
Test [5] deals with Rattus norvegicus. In words: Number of deaths at 200 mg/kg at 2 hr after the last administration for 4 days chronic treatment (J4) in Wistar rats; 4 death/5.
Test [6] relates to Rattus norvegicus. Briefly: Number of deaths at 20 mg/kg at 2 hr after the last administration for 4 days chronic treatment (J4) in Wistar rats; 1 death/5.

Regarding `CCOc1cc(C(=O)N=C(N)N)nc2cc3c(cc12)OCO3.Cl`, the Glycaemia evolution was -4% in the test with Rattus norvegicus [1], -7% in the test on Rattus norvegicus [2], 1% in the test on Rattus norvegicus [3] and -6% in the test with Rattus norvegicus [4].

`CCn1cc(C(=O)N=C(N)N)c(=O)c2cc(OC)ccc21.Cl`: the Glycaemia evolution in the test with Rattus norvegicus [1] is recorded as 0%; in the test on Rattus norvegicus [2], -9%; in the test with Rattus norvegicus [3] it was 0%; with Rattus norvegicus [4] it was 0%.

Turning to `COc1ccc2ncc(C(=O)N=C(N)N)c(O)c2c1.Cl`, the Glycaemia evolution with Rattus norvegicus [1] is recorded as -8%; with Rattus norvegicus [2] it was 3%; with Rattus norvegicus [3] it was 5%; with Rattus norvegicus [4] it was 3%.

As for `CCOc1cc(C(=O)Nc2nn[nH]n2)nc2ccc(F)cc12`, the Glycaemia evolution in the test with Rattus norvegicus [1] is given as 9%; with Rattus norvegicus [2], -6%; in the test with Rattus norvegicus [3] it was 8%; in the test on Rattus norvegicus [4], 4%.

`CCn1cc(C(=O)NN=C(N)N)c(=O)c2cc(OC)ccc21.Cl`: the Glycaemia evolution in the test on Rattus norvegicus [1] is reported as 6%; in the test with Rattus norvegicus [2], -6%; with Rattus norvegicus [3], -10%; in the test with Rattus norvegicus [4], -12%.

In the case of `CCn1cc(C(=O)N=C(N)N)c(=O)c2ccc(C)nc21.Cl`, the Glycaemia evolution with Rattus norvegicus [1] is listed as -4%; in the test with Rattus norvegicus [2], -21%; in the test on Rattus norvegicus [3], 1%; in the test on Rattus norvegicus [4], -11%.

Take `NC(=O)NNC(=O)c1cc(O)c2cc(F)ccc2n1`: the Glycaemia evolution with Rattus norvegicus [1] is -7%; in the test with Rattus norvegicus [2], -14%; in the test on Rattus norvegicus [3], -6%; in the test with Rattus norvegicus [4] it was -16%.

Regarding `CCOc1cc(C(=O)N=C(N)N)nc2ccc(F)cc12.Cl`, the Glycaemia evolution in the test with Rattus norvegicus [1] was -5%; in the test on Rattus norvegicus [2], -30%; with Rattus norvegicus [3], -8%; in the test on Rattus norvegicus [4], -10%.

Consider `CCOc1cc(C(=O)N=C(N)N)nc2cc(OC)ccc12`, for which the Glycaemia evolution in the test with Rattus norvegicus [1] is listed as 6%; with Rattus norvegicus [2] it was 2%; in the test with Rattus norvegicus [3], 2%; in the test on Rattus norvegicus [4], -2%.

`Cl.N=C(N)NNC(=O)c1cc(O)c2cc(F)ccc2n1`: the Glycaemia evolution is 8% in the test with Rattus norvegicus [1], -2% in the test on Rattus norvegicus [2], 8% in the test on Rattus norvegicus [3] and 4% in the test on Rattus norvegicus [4].

`CCOc1cc(C(=O)NNC(N)=O)nc2ccc(F)cc12`: the Glycaemia evolution is 8% in the test on Rattus norvegicus [1], -3% in the test with Rattus norvegicus [2], 3% with Rattus norvegicus [3] and -8% in the test on Rattus norvegicus [4].

Turning to `Cl.N=C(N)NC(=O)c1cc(Cl)c2cc(F)ccc2n1`, the Glycaemia evolution with Rattus norvegicus [1] turned out to be 58%; with Rattus norvegicus [3] it was 19%. Besides, the No. of deaths in the test on Rattus norvegicus [5] was 4; with Rattus norvegicus [6], 1.

`CCN1CC(C(=O)N/N=C(\N)N=C(N)N)C(=O)c2cc(OC)ccc21.Cl` (stereo not given): the Glycaemia evolution with Rattus norvegicus [1] is given as 2%; in the test on Rattus norvegicus [2] it was -5%; in the test with Rattus norvegicus [3] it was -3%; with Rattus norvegicus [4] it was -2%.

On to `CCOc1cc(C(=O)NN=C(N)N)nc2ccc(F)cc12.Cl`, for which the Glycaemia evolution is given as -4% with Rattus norvegicus [1], -14% in the test with Rattus norvegicus [2], 6% with Rattus norvegicus [3] and -3% in the test on Rattus norvegicus [4].

As for `Cl.N=C(N)NC(=O)c1cc(O)c2cc(F)ccc2n1`, the Glycaemia evolution is listed as -7% in the test on Rattus norvegicus [1], -14% in the test on Rattus norvegicus [2], -5% in the test on Rattus norvegicus [3] and -15% with Rattus norvegicus [4].
